Assay results reported in patent publication US20250344731A1, “SALTY TASTE/UMAMI ENHANCER” (AJINOMOTO CO., INC., priority 2023, published 2025).

How the values were obtained:
[1] = Sensory evaluation of saltiness enhancement function, naringenin/naringin added to NaCl aqueous solution (Example 1); details: 30 ppm added to water (NaCl 0%); scale NC 0.8% NaCl = 1.00, PC 0.9% NaCl = 5.5; panel of three, average
[2] = Sensory evaluation of umami enhancement function, naringenin/naringin added to sodium glutamate umami solution or water (Example 2); details: for umami enhancement function: addition to umami solution (sodium glutamate, sodium aspartate), 30 ppm, function = 1.5 times or more
Procedure: (§1) As shown in Table 4: Umami solution (weight g/100 g), an umami solution was prepared. Water at ordinary temperature was used for preparation. Water, naringenin (Penta manufacturing) or naringin (IKEDA CORPORATION) were weighed and added to each of the prepared umami solutions or water at various concentrations shown in Table 5: Prepared sensory evaluation samples. The umami intensity of each sample was blindly evaluated using a scoring system in 0.01 point increments, with the umami intensity of water in test plot 1 as 0 point, the umami intensity of NC in test plot 3 as 0.30 points, and the umami intensity of NC2 in test plot 4 as 0.10 point. The evaluation was performed by a trained panel of three, and the average score of each panel was used. Samples whose umami intensity was enhanced by 1.5 times or more (sodium glutamate 0.45 points or more, sodium aspartate 0.15 points or more) due to the addition were evaluated to “have an umami enhancement function”. In addition, the presence or absence, and intensity of off-taste (bitterness and harsh taste other than umami) were also evaluated. The evaluation results are shown in Table 6: Sensory evaluation (umami intensity).

[3] = Sensory evaluation of umami enhancement function, naringenin/naringin added to sodium aspartate umami solution (Example 2); details: 30 ppm added to NC2 (Asp-Na, sodium aspartate 0.2%); for umami intensity (points): NC2 = 0.10 point; for degree of umami enhancement (times): relative to NC2
Procedure: as §1

[4] = Sensory evaluation of saltiness enhancement function, naringenin/naringin added to NaCl aqueous solution (Example 1); details: for saltiness intensity: scale NC = 1.00, PC 0.9% NaCl = 5.5; for saltiness enhancement function: addition of 1 ppm or more to salt water, function = saltiness intensity 1.8 points or more
Procedure: As shown in Table 1: NaCl aqueous solution (weight g/100 g), various NaCl aqueous solutions (saline solutions) were prepared. Filtered water at ordinary temperature was used for preparation. Water, naringenin (Penta Manufacturing), or naringin (IKEDA CORPORATION) were weighed and added to the prepared 0.8% aqueous solution at various concentrations shown in Table 2: Prepared sensory evaluation samples. The saltiness intensity of each sample was blindly evaluated using a scoring system in 0.1 point increments, with the saltiness intensity of NC in test plot 1 as 1.00 point and the saltiness intensity of PC in test plot 2 as 5.5 points. The evaluation was performed by a trained panel of three, and the average score of each panel was used. Samples with a saltiness intensity of 1.8 points or more (NaCl 0.84% or more) due to the addition were evaluated to “have a saltiness enhancement function”. In addition, the presence or absence, and intensity of off-taste (bitterness and harsh taste other than saltiness) were also evaluated. The evaluation results are shown in Table 3: Sensory evaluation (saltiness intensity).

[5] = Sensory evaluation of saltiness enhancement function, naringenin-related flavonoid components in NaCl aqueous solution (Example 3); details: for saltiness intensity: 30 ppm in NC salt water (NaCl 0.8%), scale NC = 1.0, PC1 0.9% = 2.0, PC2 1.0% = 3.0, panel of three, average
Source text: 1) The following flavonoid components were used as naringenin-related flavonoid components: • Luteolin (manufactured by Salus Nutra Inc.), pinocembrin (manufactured by Xi'an Demeter Biotech Co., Ltd.), liquiritigenin (manufactured by Xi'an Julong Import and Export Co., Ltd.), apigenin (manufactured by Xi'an Best Bio-Tech Co., Ltd.), and acacetin (manufactured by Xi'an Reain Biotechnology Co., Ltd.)
2) The following compound was used as control component: Quercetin (manufactured by Medience Corporation) (structure shown below)
As shown in Table 7: NaCl aqueous solution (weight g/100 g), various NaCl aqueous solutions (saline solutions) were prepared. Water at ordinary temperature was used for preparation.
Each naringenin-related flavonoid component dissolved in propylene glycol (SIGMA) at 10000 ppm was added to the prepared 0.8% salt water solution such that the concentration at the time of eating (corresponding to the content of the present flavonoid component or a salt thereof in the oral ingestion product at the time of oral ingestion, as a flavonoid component relative to the oral ingestion product) was 30 ppm (Table 8).
The saltiness intensity of each sample was blindly evaluated using a scoring system in 0.5 point increments, with the saltiness intensity of NC in test plot 1 as 1.0 point, the saltiness intensity of PC1 as 2.0 points, and the saltiness intensity of PC2 as 3.0 points. The evaluation was performed by a trained panel of three, and the average score was used. Since the saltiness intensity of 2.0 points of PC1 is evaluated to be clearly stronger in saltiness than NC, samples with a saltiness intensity of 1.5 points or more (NaCl 0.85% or more) were evaluated to have a saltiness enhancement function. In addition, the presence or absence, and intensity of off-taste (bitterness and harsh taste other than saltiness) were also evaluated. The evaluation results are shown in Table 9: Sensory evaluation (saltiness intensity).

[6] = Sensory evaluation of umami enhancement function, naringenin-related flavonoid components in umami solution (Example 4); details: for degree of umami enhancement (times) / umami intensity (points): 30 ppm in NC (sodium glutamate 0.1%); for degree of umami enhancement (times): relative to NC; for umami intensity (points): scale water = 0, NC = 0.30, panel of three, average
Procedure: • 1) The five naringenin-related flavonoid components evaluated in Example 3 were used. • 2) Quercetin was used as the control component. Umami solutions were prepared as shown in Table 10: Umami solution (weight g/100 g). Water at ordinary temperature was used for preparation. Each naringenin-related flavonoid component and the like dissolved in propylene glycol (SIGMA) at 10000 ppm was added to the prepared 0.1% umami aqueous solution such that the concentration at the time of eating was 30 ppm (Table 11). The umami intensity of each sample was blindly evaluated using a scoring system in 0.05 point increments, with the umami intensity of water in test plot 1 as 0 point and the umami intensity of NC in test plot 2 as 0.30 points. The evaluation was performed by a trained panel of three, and the average score was used. The umami enhancement function of samples whose umami intensity was enhanced by 1.5 times or more (sodium glutamate 0.45 points or more) due to the addition was evaluated to be functional. In addition, the presence or absence, and intensity of off-taste (bitterness and harsh taste other than umami) were also evaluated. The evaluation results are shown in Table 12: Sensory evaluation (umami intensity).

[7] = 30 ppm added to NC1 (MSG, sodium glutamate 0.1%), NC1 = 0.30 points
[8] = 30 ppm added to NC1 (MSG, sodium glutamate 0.1%), relative to NC1
[9] = 30 ppm added to water, scale water = 0, NC1 = 0.30, NC2 = 0.10
[10] = 1 ppm added to NC salt water (NaCl 0.8%)
[11] = 10 ppm added to NC salt water (NaCl 0.8%)
[12] = 30 ppm added to NC salt water (NaCl 0.8%)

## C[C@@H]1O[C@@H](O[C@H]2[C@H](Oc3cc(O)c4c(c3)O[C@H](c3ccc(O)cc3)CC4=O)O[C@H](CO)[C@@H](O)[C@@H]2O)[C@H](O)[C@H](O)[C@H]1O [Naringin, naringin, reference compound]
[1]
  saltiness intensity: 0 points
[2]; [7]
  umami intensity (points): 0.35 points
[2]; [8]
  degree of umami enhancement (times): 1.2 times
[2]; 30 ppm added to water
  degree of umami enhancement (times): 0 times
[2]; [9]
  umami intensity (points): 0.00 points
[2]
  umami enhancement function: no enhancement of the umami intensity was observed
[3]
  umami intensity (points): 0.12 points
  degree of umami enhancement (times): 1.2 times
[4]; [10]
  saltiness intensity: 1.8 points
[4]; [11]
  saltiness intensity: 2.1 points
[4]; [12]
  saltiness intensity: 2.2 points
[4]
  saltiness enhancement function: also showed a saltiness enhancement function

## O=c1c(O)c(-c2ccc(O)c(O)c2)oc2cc(O)cc(O)c12 [Quercetin, reference compound]
[5]
  saltiness intensity: 1.3 points
[5]; 30 ppm in salt water (NaCl 0.8%), function = 1.5 points or more
  saltiness enhancement effect: did not show a saltiness enhancement effect
[6]
  degree of umami enhancement (times): 1.00 times
  umami intensity (points): 0.30 points

## O=C1C[C@@H](c2ccc(O)cc2)Oc2cc(O)ccc21 [Liquiritigenin, (2S)-4′,7-dihydroxyflavan-4-one]
[5]
  saltiness intensity: 3.5 points
[6]
  degree of umami enhancement (times): 1.87 times
  umami intensity (points): 0.56 points

## O=c1cc(-c2ccc(O)cc2)oc2cc(O)cc(O)c12 [Apigenin, 5,7-dihydroxy-2-(4-hydroxyphenyl)-4H-1-benzopyran-4-one]
[5]
  saltiness intensity: 3.5 points
[6]
  degree of umami enhancement (times): 1.87 times
  umami intensity (points): 0.56 points

## COc1ccc(-c2cc(=O)c3c(O)cc(O)cc3o2)cc1 [Acacetin, 5,7-dihydroxy-4-methoxyflavone]
[5]
  saltiness intensity: 3.5 points
[6]
  degree of umami enhancement (times): 1.67 times
  umami intensity (points): 0.50 points

## O=c1cc(-c2ccc(O)c(O)c2)oc2cc(O)cc(O)c12 [Luteolin, 2-(3,4-dihydroxyphenyl)-5,7-dihydroxy-4-chromenone]
[5]
  saltiness intensity: 2.0 points
[6]
  degree of umami enhancement (times): 1.43 times
  umami intensity (points): 0.43 points
[6]; 30 ppm in umami solution (sodium glutamate 0.1%), functional = 1.5 times or more
  umami enhancement effect: tendency to enhance umami

## O=C1CC(c2ccccc2)Oc2cc(O)cc(O)c21 (stereo not drawn) [Pinocembrin, 5,7-dihydroxy-2-phenyl-2,3-dihydro-4H-chromene-4-one]
[5]
  saltiness intensity: 2.0 points
[6]
  degree of umami enhancement (times): 1.67 times
  umami intensity (points): 0.50 points

## O=C1C[C@@H](c2ccc(O)cc2)Oc2cc(O)cc(O)c21 (stereo in doubt) [Naringenin, 5,7-dihydroxy-2-(4-hydroxyphenyl)chroman-4-one]
[1]
  saltiness intensity: 0 points
[2]; [7]
  umami intensity (points): 0.47 points
[2]; [8]
  degree of umami enhancement (times): 1.6 times
[2]; 30 ppm added to water
  degree of umami enhancement (times): 0 times
[2]; [9]
  umami intensity (points): 0.00 points
[2]
  umami enhancement function: showed an umami enhancement function
[3]
  umami intensity (points): 0.20 points
  degree of umami enhancement (times): 2.0 times
[4]; [10]
  saltiness intensity: 1.9 points
[4]; 5 ppm added to NC salt water (NaCl 0.8%)
  saltiness intensity: 2.4 points
[4]; [11]
  saltiness intensity: 3.0 points
[4]; [12]
  saltiness intensity: 2.9 points
[4]
  saltiness enhancement function: showed a saltiness enhancement function
